From the supplement of paper PMC10307832

Legend:
Experiment in all cases: relative viability (nuclei count vs DMSO), 5 days (fraction); higher = more cells survive
[1] = compound: NC1(c2ccc(-c3nc4ccn5c(=O)[nH]nc5c4cc3-c3ccccc3)cc2)CCC1 [MK-2206] + Cc1nc(NC(=O)N2CCC[C@H]2C(N)=O)sc1-c1ccnc(C(C)(C)C(F)(F)F)c1 [Alpelisib] (partner 2 µM)
How it was run: (§1)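 Dosing by pin tool came one day after lung cancer cell lines were seeded in 1536-well plates, using either one drug or a fixed anchor-drug dose plus five library-drug doses (not always all listed) in √10 steps. After 5 days, nuclei were counted on 4× images. Relative viability is treated-well nuclei count divided by vehicle-well nuclei count, and values are medians of duplicate plates.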

[2] = compound: NC1(c2ccc(-c3nc4ccn5c(=O)[nH]nc5c4cc3-c3ccccc3)cc2)CCC1 [MK-2206] + CC(=O)Nc1cccc(-n2c(=O)n(C3CC3)c(=O)c3c(Nc4ccc(I)cc4F)n(C)c(=O)c(C)c32)c1 [Trametinib] (partner 0.02 µM)
How it was run: as §1

[3] = compound: CS(=O)(=O)N1CCN(Cc2cc3nc(-c4cccc5[nH]ncc45)nc(N4CCOCC4)c3s2)CC1 [Pictilisib] + CC(=O)c1c(C)c2cnc(Nc3ccc(N4CCNCC4)cn3)nc2n(C2CCCC2)c1=O [Palbociclib] (partner 0.5 µM)
How it was run: as §1

[4] = compound: CS(=O)(=O)N1CCN(Cc2cc3nc(-c4cccc5[nH]ncc45)nc(N4CCOCC4)c3s2)CC1 [Pictilisib] + CC1(C)CCC(c2ccc(Cl)cc2)=C(CN2CCN(c3ccc(C(=O)NS(=O)(=O)c4ccc(N[C@H](CCN5CCOCC5)CSc5ccccc5)c(S(=O)(=O)C(F)(F)F)c4)cc3)CC2)C1 [Navitoclax] (partner 0.5 µM)
How it was run: as §1

[5] = compound: CS(=O)(=O)N1CCN(Cc2cc3nc(-c4cccc5[nH]ncc45)nc(N4CCOCC4)c3s2)CC1 [Pictilisib] + Cc1cc(Nc2cc(N3CCN(C)CC3)nc(Sc3ccc(NC(=O)C4CC4)cc3)n2)n[nH]1 [Tozasertib] (partner 0.1 µM)
How it was run: as §1

Which results are given for UMC-11?
relative viability ([1]; first compound 0.01 µM): 1.03; relative viability ([1]; first compound 0.03162 µM): 0.908; relative viability ([1]; first compound 0.3162 µM): 1.1; relative viability ([1]; first compound 1 µM): 0.994; relative viability ([2]; first compound 0.01 µM): 0.594; relative viability ([2]; first compound 0.03162 µM): 0.717; relative viability ([2]; first compound 0.3162 µM): 0.772; relative viability ([2]; first compound 1 µM): 0.966; relative viability ([3]; first compound 0.02 µM): 0.334; relative viability ([3]; first compound 0.06325 µM): 0.318; relative viability ([3]; first compound 0.6325 µM): 0.427; relative viability ([3]; first compound 2 µM): 0.376; relative viability ([4]; first compound 0.02 µM): 0.343; relative viability ([4]; first compound 0.06325 µM): 0.281; relative viability ([4]; first compound 0.6325 µM): 0.349; relative viability ([4]; first compound 2 µM): 0.281; relative viability ([5]; first compound 0.02 µM): 0.202; relative viability ([5]; first compound 0.06325 µM): 0.192; relative viability ([5]; first compound 0.6325 µM): 0.2; relative viability ([5]; first compound 2 µM): 0.216
